What was measured:
[1] = Measurement of photophysical properties in MOPS buffer; type: physicochemical; conditions: for λ(1)max, λmax of one-photon absorption spectra: MOPS buffer (30 mM MOPS, 100 mM KCl, pH 7.4); for Φδ, two-photon action cross section / λ(2)max, λmax of two-photon excitation spectra / λfl max, λmax of one-photon emission spectra / 10^−4 ε, molar extinction coefficient (in parentheses) / Φ, fluorescence quantum yield / δ, peak two-photon cross section per photon: MOPS buffer pH 7.4; for 10^−4 ε, molar extinction coefficient (in parentheses): printed as 10^−4 ε; for Φ, fluorescence quantum yield / δ, peak two-photon cross section per photon: ±15%
Protocol: (§1) Photophysical properties of the two-photon fluorescent probe (SSH-Mito) (Example 1) and the compound represented by Formula 6 were measured in MOPS buffer (30 mM MOPS, 100 mM KCl, pH 7.4).

HeLa cells = assay: Cytotoxicity, viability by CCK-8 kit; type: cell-based; conditions: incubated 2 hours
Protocol: The cells were incubated with SSH-Mito for 2 hours.

[2] = system: thiols in rat hippocampal slices; assay: Ratiometric two-photon microscopy imaging of rat hippocampal slices
Protocol: (a, d) Bright-field images of the CA1 and CA3 regions. (b, e) Ratiometric TPM images of rat hippocampal slices that were (b) not treated and (e) pretreated with NEM (100 μM) for 30 minutes before labeling with SSH-Mito. Ten TPM images were accumulated along the z-axis direction at depths of about 90-190 μm (10×). (c, f) Enlarged (40×) images of the red boxes in (b) and (e) at a depth of 120 μm. The two-photon excited fluorescence (TPEF) was collected in two channels (blue=425-475 nm, yellow=525-575 nm) upon excitation at 740 nm with a femtosecond (fs) pulse. Scale bars: 300 μm (a, d) and 75 μm (c, f)).
In order to investigate the utility of two-photon fluorescent probe of the present invention in tissue imaging, rat hippocampal slices were monitored.
Since the structure of the brain tissue is known to be inhomogeneous throughout its entire depth, 10 TPM images were obtained at depths of 90-190 μm and they were combined to visualize the overall thiol distribution. […] When the tissue was treated with 100 μM NEM for 30 minutes, the ratio decreased to 0.85 (FIG. 8 (f)).

[3] = Emission ratio change (Rmax/Rmin) before and after addition of GSH; conditions: before and 2 hours after addition of 10 mM GSH
Protocol: as §1

[4] = Measurement of water solubility by fluorescence intensity versus concentration; type: physicochemical; conditions: 30 mM MOPS, 100 mM KCl, pH 7.4; 0.2% DMSO
Protocol: A small amount of the two-photon fluorescent probe (SSH-Mito) prepared in Example 1 was dissolved in DMSO to prepare a stock solution (1.0×10^−2 M). The solution was diluted to 6.0×10^−3 to 6.0×10^−5 M and added to a cuvette containing 3.0 mL of a buffer (30 mM MOPS, 100 mM KCl, pH 7.4) using a microsyringe. In all cases, the concentration of DMSO in water was maintained at 0.2%. […] The maximum concentration in the linear region is determined as the solubility of the two-photon fluorescent probe.

[5] = Thiol selectivity and pH dependence of fluorescence response in MOPS buffer
Protocol: White and black bars represent the relative fluorescence intensity (Fyellow/Fblue) of SSH-Mito (5 μM) in the presence of various analytes before and after addition of GSH, respectively. Each spectrum was acquired 2 hours after addition of various analytes at 37° C.
The excitation wavelength was 380 nm.
White and black bars represent the relative fluorescence intensity before and after addition of GSH, respectively.

thiols in HeLa cells = assay: Ratiometric two-photon microscopy imaging of thiols in HeLa cells; type: cell-based
Protocol: The images were acquired using 740 nm excitation and fluorescence emission windows of 425-475 nm (blue) and 525-575 nm (yellow). Scale bar: 20 μm. The cells shown are representative images obtained from repeated experiments (n=5).
It was tested if the two-photon fluorescent probe of the present invention can monitor the change of thiols in a living cell.
When the cells were pre-incubated for 1 day with α-lipolic acid which increases GSH production (FIG. 6 (b)), the Fyellow/Fblue ratio increased to 2.64. And, when treated with N-ethylmaleimide (NEM), a well-known thiol blocking agent, the Fyellow/Fblue ratio decreased to 0.77 (FIG. 6 (c)).

Row | Compound | λ(1)max, λmax of one-photon absorption spectra [1] | Φδ, two-photon action cross section [1] | λ(2)max, λmax of two-photon excitation spectra [1] | λfl max, λmax of one-photon emission spectra [1] | 10^−4 ε, molar extinction coefficient (in parentheses) [1] | Φ, fluorescence quantum yield [1] | δ, peak two-photon cross section per photon [1] | viability of HeLa cells (cytotoxicity) (HeLa cells) | average emission ratio ([2]; CA1 region, depth of 120 μm, not treated) | average emission ratio ([2]; tissue treated with 100 μM NEM for 30 minutes) | Rmax/Rmin, emission ratio (F525-575/F425-475) conversion factor, one-photon processes ([3]; one-photon) | Rmax/Rmin, emission ratio conversion factor, two-photon processes (in parentheses) ([3]; two-photon) | solubility in the buffer [4] | selectivity for GSH over other analytes ([5]; 5 μM probe, 10 mM analytes, 30 mM MOPS buffer pH 7.4) | fluorescence response toward compounds containing thiol groups ([5]; GSH, Cys, Hcy, DTT, 2-ME, 2-AET) | effect of pH on fluorescence ([5]; absence and presence of 10 mM GSH, MOPS buffer) | fluorescence response toward analytes without thiol groups ([5]; amino acids (Glu, Ser, Val, Met, Ala, Ile), metal ions (Na+, K+, Ca+, Mg2+, Zn2+) and H2O2) | Fyellow/Fblue ratio (thiols in HeLa cells; HeLa cells pre-incubated for 1 day with α-lipolic acid) | Fyellow/Fblue ratio (thiols in HeLa cells; HeLa cells treated with N-ethylmaleimide (NEM)) | average emission ratio (Fyellow/Fblue) (thiols in HeLa cells; HeLa cells, TP excitation at 740 nm, no pretreatment)
1 | CNc1ccc2cc(-c3nc4ccc(C(=O)NCC[P+](c5ccccc5)(c5ccccc5)c5ccccc5)cc4s3)ccc2c1.[Br-] [Compound No. 6] | 383 nm | 55 | 750 nm | 545 nm | 1.50 M^−1 cm^−1 | 0.12 | 550 GM | – | – | – | – | – | – | – | – | – | – | – | – | –
2 | CN(C(=O)OCCSSCCN)c1ccc2cc(-c3nc4ccc(C(=O)NCC[P+](c5ccccc5)(c5ccccc5)c5ccccc5)cc4s3)ccc2c1 [SSH-Mito] | 338 nm | 80 | 740 nm | 462 nm | 2.05 M^−1 cm^−1 | 0.82 | 95 GM | adequate for detecting thiols in living cells | 1.66 | 0.85 | 45 | 40 | ~5.0 µM | high selectivity for GSH | strong responses | pH-insensitive at biologically relevant pH | negligible responses | 2.64 | 0.77 | 1.24

Reference: US9005917B2, “Variable color two-photon fluorescent probe, method for imaging thiol activation in mitochondrion using same, and method for manufacturing the variable color two-photon fluorescent probe” (Ajou University Industry-Academic Cooperation Foundation, priority 2011, dated 2015)
